{"source": "patent US20080171705A1", "about": "“METHODS OF INDUCING AND TREATING VASCULAR DISEASE” (priority 2007, published 2008)", "key": {"[1]": {"test": "Plasma lipids (total cholesterol, triglycerides, LDL and HDL cholesterol)", "type": "in vivo, apoE^−/− mice", "text": "(§1) ApoE^−/− mice (backcrossed ten times to the C57BL/6 background) were purchased from The Jackson Laboratory. The mice were kept on a twelve-hour light/twelve-hour dark regimen upon arrival. All animal experiments were approved by the IACUC of the Consumer & Personal Product Worldwide, in accordance with AAALAC guidelines. Eight week old, male apoE^−/− mice were fed a normal mouse-chow diet (RP5001; PMI Feeds Inc., St. Louis, Mo.) and acclimated for one week before switching to a pro-atherogenic high fat, high cholesterol, diet (“Western diet”, 21% fat, 0.2% cholesterol, diet No. 88137, Harlan-Teklad, Madison, Wis.) for four weeks.\n(§2) Upon initiation of the pro-atherogenic diet, Alzet osmotic mini-pumps (Model 2004; ALZA Scientific Products, Mountain View, Calif.) were implanted into the apoE^−/− mice subcutaneously. The mini-pumps were loaded with angII (EMD Biosciences, San Diego, Calif.) at the delivery rate of 1,000 ng/min/kg for twenty-eight days. The mice were anesthetized using isoflurane for the implantation of the mini-pumps. Small incisions in the lower back of the neck were made and the mini-pumps were inserted into the subcutaneous space of the mice. The incisions were then closed using sterile staplers. Triple antibiotic ointment was applied to each incision post surgery. The mice on the high fat, high cholesterol diet were sacrificed by CO2 inhalation twenty-eight days post mini-pump implantation as is explained in detail subsequently.\n(§3) Upon initiation of the pro-atherogenic diet and osmotic mini-pump implantation, mice were randomly assigned to four groups; namely, vehicle control, rapamycin or sirolimus 0.5 mg/kg, sirolimus 1.0 mg/kg and sirolimus 4.0 mg/kg body weight. The defined amount of sirolimus was dissolved in ethanol, brought up in a vehicle comprising 0.2 percent Sodium carboxymethylcellulose and 0.25 percent tween 80) and administrated to mice (i.p., daily).\nPlasma triglyceride and total cholesterol levels were determined via an automated enzymatic technique (Equal Diagnostic Inc., Exton, Pa.). Mouse lipoproteins were separated by fast protein liquid chromatography (FPLC) analysis of plasma using 2 Superose 6 columns in series (Pharmacia Biotech Inc., Piscataway, N.J.). Aliquots of mouse plasma (100 μl) were injected onto the column, separated with a buffer containing 0.15 M NaCl, 0.01 M Na2HPO4, and 0.1 mM EDTA (pH 7.5) at a flow rate of 0.5 mL/min, and analyzed for lipids."}, "apoE^−/− mice [2]": {"system": "apoE^−/− mice", "test": "Abdominal aortic adventitia lesion analysis (incidence and severity)", "type": "in vivo", "settings": "1 of 22 mice; vehicle control 30 percent, 3 of 10 mice", "text": "ApoE^−/− mice (backcrossed ten times to the C57BL/6 background) were purchased from The Jackson Laboratory. The mice were kept on a twelve-hour light/twelve-hour dark regimen upon arrival. All animal experiments were approved by the IACUC of the Consumer & Personal Product Worldwide, in accordance with AAALAC guidelines. Eight week old, male apoE^−/− mice were fed a normal mouse-chow diet (RP5001; PMI Feeds Inc., St. Louis, Mo.) and acclimated for one week before switching to a pro-atherogenic high fat, high cholesterol, diet (“Western diet”, 21% fat, 0.2% cholesterol, diet No. 88137, Harlan-Teklad, Madison, Wis.) for four weeks. […]\nThe abdominal aorta was subjected to abdominal aortic adventitia lesion analysis. […] Classification of the adventitia lesions was determined according to the scale based on the gross appearance of the aorta reported by Daugherty et al. Briefly, I: Dilated lumen in the supra-renal region of the aorta with no thrombus; II: Remodeled tissue in the supra-renal region that frequently contains thrombus; III: A pronounced bulbous form of type II that contains thrombus; IV: A form in which there are multiple adventitia lesions containing thrombus, some overlapping, in the suprarenal area of the aorta."}, "[3]": {"test": "Sirolimus whole blood pharmacokinetics (LC-MS/MS)", "type": "in vivo, apoE^−/− mice", "settings": "i.p., daily, 0.5, 1.0 and 4.0 mg/kg", "method": "as §3\nSirolimus was quantitated using liquid-liquid extraction and reverse-phase liquid chromatography mass spectrometry (LC-MS/MS). Briefly, 100 μl of mouse whole blood sample underwent protein precipitation with 5 percent Methanol/Zinc sulfate solution containing the internal standard ascomycin. After centrifugation of the resulting solution, the liquid mixture proceeded with liquid-liquid extraction with 1-chlorobutane. The combined organic extract was then blown down to dryness and reconstituted with 50:50 Methanol:20 mM ammonium acetate solution. The samples were analyzed on API-5000 using C18 reverse-phase chromatography in Multiple Reaction Monitoring (MRM) mode using atmospheric pressure chemical ionization (APCI) approach. The calibration standard curve results for sirolimus in mouse whole blood were acceptable from 0.5 ng/ml to 10,000 ng/ml with correlation coefficient of 0.998. The percent bias for the calibration standards ranged from about […] to about 8.0 percent.\nThe regimen of sirolimus administration (i.p., daily, 0.5, 1.0, and 4.0 mg/kg) results in significant increase of whole blood sirolimus levels in the apoE^−/− mice within 24 hours post injection. The blood drug levels reached peak level at 1 hour post injection, dropped to approximately 30 to 40 percent at 6 hours and remained at trace level at 24 hours."}, "apoE^−/− mice [4]": {"system": "apoE^−/− mice", "test": "Health status, body weight and re-suturing incidence post mini-pump surgery", "type": "in vivo", "text": "as §1, §2, §3\nThe data is depicted as re-suturing incedince post surgery per group size. A clear increase of the suture index is observed in response to sirolimus administration in a dose dependent manner."}}}
{"smiles": "CO[C@H]1C[C@@H]2CC[C@@H](C)[C@@](O)(O2)C(=O)C(=O)N2CCCC[C@H]2C(=O)O[C@H]([C@H](C)C[C@@H]2CC[C@@H](O)[C@H](OC)C2)CC(=O)[C@H](C)/C=C(\\C)[C@@H](O)[C@@H](OC)C(=O)[C@H](C)C[C@H](C)/C=C/C=C/C=C/1C", "note": "[sirolimus]", "values": [{"measurement": "elevation of LDL cholesterol", "setting": "[1]; all sirolimus treated mice", "result": "> 60", "unit": "%"}, {"measurement": "increase of plasma total cholesterol level vs vehicle control", "setting": "[1]; i.p., daily, 0.5, 1.0 and 4.0 mg/kg, angII, Western diet, 28 days", "result": "44 to 50", "unit": "%"}, {"measurement": "increase of HDL cholesterol", "setting": "[1]; mice receiving sirolimus", "result": "55 to 81", "unit": "%"}, {"measurement": "triglyceride", "setting": "[1]; regardless of the dosage employed", "result": "trend of elevated triglyceride"}, {"measurement": "incidence of abdominal aortic adventitia lesion", "setting": "apoE^−/− mice [2]", "result": 4.5, "unit": "%"}, {"measurement": "blood drug level at 6 hours (relative to peak level)", "setting": "[3]; 6 hours post injection", "result": "30 to 40", "unit": "%"}, {"measurement": "blood drug level at 24 hours", "setting": "[3]; 24 hours post injection", "result": "trace level"}, {"measurement": "time of peak whole blood drug level post injection", "setting": "[3]; whole blood", "result": 1, "unit": "h"}, {"measurement": "body weight", "setting": "apoE^−/− mice [4]; all 3 sirolimus treated groups, no statistical significance", "result": "trend of decreased body weight"}, {"measurement": "health status", "setting": "apoE^−/− mice [4]; i.p., daily, 0.5, 1.0 and 4.0 mg/kg, angII infusion, high fat, high cholesterol diet", "result": "not overtly affected"}, {"measurement": "re-suturing incidence post surgery (wound healing)", "setting": "apoE^−/− mice [4]; post mini-pump implantation, dose dependent", "result": "increased incidence of re-suturing"}]}
